Test results from PubChem BioAssay AID192 (DTP/NCI, 2004).
Values joined by “and” are separate entries in the source; they are usually repeats but may differ in a detail not shown here. Equal entries are not always repeated. Toxic doses and inconclusive results are not listed.

System: BDF1 mice, B16 melanoma ip, median survival T/C
Assay: NCI In Vivo Anticancer Drug Screen. Data for tumor model B16 Melanoma (intraperitoneal) in B6D2F1 (BDF1) mice
Conditions: endpoint: median survival time, higher = longer survival
Method in brief: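 Survival or tumor size is measured after treatment of tumor-bearing mice and normalised to the vehicle-treated control group.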

[1] = dose: 25.0 mg/kg/injection, schedule: Q01DX009 (ip), vehicle: Klucel (hydroxypropylcellulose) (HPC)
[2] = dose: 50.0 mg/kg/injection, schedule: Q01DX009 (ip), vehicle: Klucel (hydroxypropylcellulose) (HPC)
[3] = dose: 100.0 mg/kg/injection, schedule: Q01DX009 (ip), vehicle: Klucel (hydroxypropylcellulose) (HPC)
[4] = dose: 200.0 mg/kg/injection, schedule: Q01DX009 (ip), vehicle: Klucel (hydroxypropylcellulose) (HPC)
[5] = dose: 12.5 mg/kg/injection, schedule: Q01DX009 (ip), vehicle: saline
[6] = dose: 100.0 mg/kg/injection, schedule: Q01DX009 (ip), vehicle: saline with Tween-80
[7] = dose: 200.0 mg/kg/injection, schedule: Q01DX009 (ip), vehicle: saline with Tween-80
[8] = dose: 50.0 mg/kg/injection, schedule: Q01DX009 (ip), vehicle: saline with Tween-80
[9] = dose: 25.0 mg/kg/injection, schedule: Q04DX003 (ip), vehicle: saline
[10] = dose: 50.0 mg/kg/injection, schedule: Q04DX003 (ip), vehicle: saline

Compound: O=C(CCN1CC1)Nc1cccc(NC(=O)CCN2CC2)c1
- T/C (dose: 2.5 mg/kg/injection, schedule: Q01DX009 (ip), vehicle: Klucel (hydroxypropylcellulose) (HPC)): 156 % of control
- T/C (dose: 5.0 mg/kg/injection, schedule: Q01DX009 (ip), vehicle: Klucel (hydroxypropylcellulose) (HPC)): 153 % of control and 173 % of control
- T/C (dose: 10.0 mg/kg/injection, schedule: Q01DX009 (ip), vehicle: Klucel (hydroxypropylcellulose) (HPC)): 211 % of control and 268 % of control

Compound: CNC(Cc1ccccc1)c1ccccc1 (stereo not given)
- T/C [1]: 105 % of control
- T/C [2]: 105 % of control
- T/C [3]: 113 % of control

Compound: NC(N)=Nc1cc2ccccc2c2ccccc12
- T/C (dose: 5.0 mg/kg/injection, schedule: Q01DX009 (ip), vehicle: saline): 93 % of control
- T/C (dose: 10.0 mg/kg/injection, schedule: Q01DX009 (ip), vehicle: saline): 111 % of control
- T/C (dose: 20.0 mg/kg/injection, schedule: Q01DX009 (ip), vehicle: saline): 120 % of control

Compound: Cc1ccccc1N=Nc1c(N)ccc2ccccc12
- T/C [2]: 110 % of control
- T/C [3]: 106 % of control
- T/C [4]: 106 % of control

Compound: CS(=O)(=O)OCCN(CCOS(C)(=O)=O)c1ccc(C=Nc2ccc3oc(=O)ccc3c2)cc1
- T/C (dose: 6.25 mg/kg/injection, schedule: Q01DX009 (ip), vehicle: Klucel (hydroxypropylcellulose) (HPC)): 120 % of control
- T/C (dose: 12.5 mg/kg/injection, schedule: Q01DX009 (ip), vehicle: Klucel (hydroxypropylcellulose) (HPC)): 118 % of control
- T/C [2]: 118 % of control

Compound: CCNCCCN
- T/C (dose: 6.25 mg/kg/injection, schedule: Q01DX009 (ip), vehicle: saline): 102 % of control
- T/C [5]: 102 % of control
- T/C (dose: 25.0 mg/kg/injection, schedule: Q01DX009 (ip), vehicle: saline): 94 % of control

Compound: CCOC(CNC(=O)CC(C)=O)OCC
- T/C (dose: 100.0 mg/kg/injection, schedule: Q01DX009 (ip), vehicle: saline): 110 % of control
- T/C (dose: 200.0 mg/kg/injection, schedule: Q01DX009 (ip), vehicle: saline): 118 % of control
- T/C (dose: 400.0 mg/kg/injection, schedule: Q01DX009 (ip), vehicle: saline): 106 % of control

Compound: CCCNCCNc1ccc(NCCNCCC)c2c1C(=O)c1ccccc1C2=O
- T/C (dose: 16.0 mg/kg/injection, schedule: Q01DX009 (ip), vehicle: acid diluted with saline): 112 % of control
- T/C (dose: 32.0 mg/kg/injection, schedule: Q01DX009 (ip), vehicle: acid diluted with saline): 99 % of control

Compound: CCOc1ccc(NC(=O)C2CCC(C)(C(=O)O)C2(C)C)cc1 (stereo not given)
- T/C (dose: 66.0 mg/kg/injection, schedule: Q01DX009 (ip), vehicle: saline with Tween-80): 88 % of control
- T/C [6]: 100 % of control
- T/C (dose: 150.0 mg/kg/injection, schedule: Q01DX009 (ip), vehicle: saline with Tween-80): 113 % of control

Compound: CCN(C(=O)Nc1cccc(Cl)c1)c1ccccc1C
- T/C [6]: 100 % of control
- T/C [7]: 100 % of control
- T/C (dose: 400.0 mg/kg/injection, schedule: Q01DX009 (ip), vehicle: saline with Tween-80): 94 % of control

Compound: CCN(CC)CCNc1ccc(C)c2sc3ccccc3c(=O)c12
- T/C (dose: 6.25 mg/kg/injection, schedule: Q01DX009 (ip), vehicle: suspension in saline): 103 % of control
- T/C (dose: 12.5 mg/kg/injection, schedule: Q01DX009 (ip), vehicle: suspension in saline): 105 % of control
- T/C (dose: 25.0 mg/kg/injection, schedule: Q01DX009 (ip), vehicle: suspension in saline): 103 % of control
- T/C (dose: 50.0 mg/kg/injection, schedule: Q01DX009 (ip), vehicle: suspension in saline): 102 % of control
- T/C (dose: 100.0 mg/kg/injection, schedule: Q01DX009 (ip), vehicle: suspension in saline): 120 % of control

Compound: COc1ccc(-c2nc3cc(Cl)ccc3c(=O)o2)cc1
- T/C [3]: 101 % of control
- T/C [4]: 115 % of control

Compound: CSCCC(C#N)c1ccccc1 (stereo not given)
- T/C [8]: 88 % of control
- T/C [6]: 88 % of control

Compound: FC(F)(F)c1ccc2c(c1)N(CCCNCCN1CCOCC1)c1ccccc1S2
- T/C (dose: 1.56 mg/kg/injection, schedule: Q01DX009 (ip), vehicle: saline): 105 % of control
- T/C (dose: 1.56 mg/kg/injection, schedule: Q04DX003 (ip), vehicle: saline): 93 % of control and 95 % of control
- T/C (dose: 3.12 mg/kg/injection, schedule: Q01DX009 (ip), vehicle: saline): 88 % of control
- T/C (dose: 3.12 mg/kg/injection, schedule: Q04DX003 (ip), vehicle: saline): 102 % of control
- T/C (dose: 6.25 mg/kg/injection, schedule: Q04DX003 (ip), vehicle: saline): 100 % of control and 105 % of control
- T/C [5]: 100 % of control
- T/C (dose: 12.5 mg/kg/injection, schedule: Q04DX003 (ip), vehicle: saline): 93 % of control and 107 % of control
- T/C [9]: 99 % of control and 100 % of control
- T/C [10]: 90 % of control

Compound: COc1cc(O)c2c(c1)C(=O)c1cc3c(c(O)c1C2=O)C(O)C(OC)C(C)(O)C3=O (stereo not given)
- T/C [1]: 95 % of control
- T/C [2]: 88 % of control

Compound: CCC[CH2][Hg][O]C(C)=O
- T/C (dose: 0.63 mg/kg/injection, schedule: Q01DX009 (ip), vehicle: other): 99 % of control
- T/C (dose: 1.25 mg/kg/injection, schedule: Q01DX009 (ip), vehicle: other): 89 % of control
- T/C (dose: 2.5 mg/kg/injection, schedule: Q01DX009 (ip), vehicle: other): 86 % of control

Compound: O=C(Nc1ccccc1)Nc1cccc(Cl)c1
- T/C [8]: 100 % of control
- T/C [6]: 98 % of control
- T/C [7]: 96 % of control

Compound: Cc1cccnc1C
- T/C [9]: 103 % of control
- T/C [10]: 104 % of control
- T/C (dose: 100.0 mg/kg/injection, schedule: Q04DX003 (ip), vehicle: saline): 112 % of control

Compound: Cc1c(N)nc(C(CC(N)=O)NCC(N)C(N)=O)nc1C(=O)NC(C(=O)NC(C)C(O)C(C)C(=O)NC(C(=O)NCCc1nc(-c2nc(C(=O)NCCCNCCCc3ccccn3)cs2)cs1)C(C)O)C(OC1OC(CO)C(O)C(O)C1OC1OC(CO)C(O)C(OC(N)=O)C1O)c1cnc[nH]1 (stereo not given)
- T/C (dose: 1.5 mg/kg/injection, schedule: Q01DX009 (ip), vehicle: water): 93 % of control
- T/C (dose: 3.0 mg/kg/injection, schedule: Q01DX009 (ip), vehicle: water): 102 % of control
- T/C (dose: 6.0 mg/kg/injection, schedule: Q01DX009 (ip), vehicle: water): 102 % of control and 105 % of control
- T/C (dose: 12.0 mg/kg/injection, schedule: Q01DX009 (ip), vehicle: water): 105 % of control and 110 % of control
- T/C (dose: 24.0 mg/kg/injection, schedule: Q01DX009 (ip), vehicle: water): 100 % of control

Compound: CCCC1(CCC)c2ccccc2C(CCl)(OCC)c2ccccc21
- T/C (dose: 12.5 mg/kg/injection, schedule: Q01DX009 (ip), vehicle: other): 92 % of control
- T/C (dose: 25.0 mg/kg/injection, schedule: Q01DX009 (ip), vehicle: other): 102 % of control
- T/C (dose: 50.0 mg/kg/injection, schedule: Q01DX009 (ip), vehicle: other): 100 % of control
- T/C (dose: 75.0 mg/kg/injection, schedule: Q01DX009 (ip), vehicle: other): 86 % of control
- T/C (dose: 300.0 mg/kg/injection, schedule: Q01DX009 (ip), vehicle: other): 86 % of control

Compound: CCCCCCCCCCCC[N+](C)(C)Cc1ccccc1
- T/C (dose: 0.25 mg/kg/injection, schedule: Q01DX009 (ip), vehicle: saline): 100 % of control and 110 % of control
- T/C (dose: 0.25 mg/kg/injection, schedule: Q04DX003 (ip), vehicle: saline): 103 % of control
- T/C (dose: 0.5 mg/kg/injection, schedule: Q01DX009 (ip), vehicle: saline): 97 % of control and 105 % of control and 107 % of control
- T/C (dose: 0.5 mg/kg/injection, schedule: Q04DX003 (ip), vehicle: saline): 95 % of control and 100 % of control
- T/C (dose: 1.0 mg/kg/injection, schedule: Q01DX009 (ip), vehicle: saline): 92 % of control and 104 % of control
- T/C (dose: 1.0 mg/kg/injection, schedule: Q04DX003 (ip), vehicle: saline): 96 % of control
- T/C (dose: 2.0 mg/kg/injection, schedule: Q01DX009 (ip), vehicle: saline with Tween-80): 150 % of control
- T/C (dose: 2.0 mg/kg/injection, schedule: Q01DX009 (ip), vehicle: saline): 88 % of control and 106 % of control
- T/C (dose: 2.0 mg/kg/injection, schedule: Q04DX003 (ip), vehicle: saline with Tween-80): 158 % of control
- T/C (dose: 2.0 mg/kg/injection, schedule: Q04DX003 (ip), vehicle: saline): 88 % of control
- T/C (dose: 4.0 mg/kg/injection, schedule: Q01DX009 (ip), vehicle: saline): 94 % of control and 100 % of control
- T/C (dose: 4.0 mg/kg/injection, schedule: Q04DX003 (ip), vehicle: saline with Tween-80): 177 % of control
- T/C (dose: 4.0 mg/kg/injection, schedule: Q04DX003 (ip), vehicle: saline): 93 % of control

Compound: N=C(N)CCNC(=O)C1CCC(N)=N1 (stereo not given)
- T/C (dose: 0.75 mg/kg/injection, schedule: Q01DX009 (ip), vehicle: saline): 96 % of control
- T/C (dose: 1.5 mg/kg/injection, schedule: Q01DX009 (ip), vehicle: saline): 88 % of control
- T/C (dose: 3.0 mg/kg/injection, schedule: Q01DX009 (ip), vehicle: saline): 93 % of control
- T/C (dose: 6.0 mg/kg/injection, schedule: Q01DX009 (ip), vehicle: saline): 99 % of control
